Laboratory results published in patent publication US20020137929A1, “1 - (3-heterocyclylphenyl) isothiourea, -isourea, -guanidine and -amidine herbicidal agents” (Intellectual Property Department, BASF Aktiengesellschaft, priority 1998, published 2002).

Columns and labels:
AMBEL (Ragweed, Common) = assay: Postemergence herbicidal evaluation; assay type: in vivo, Ambrosia artemisifolia; conditions: postemergence
How it was run: (§1)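 Compound is applied as a foliar spray to seedlings about two weeks old, formulated in equal parts acetone and water with 0.5% TWEEN 20 and delivered at 40 psi to give about 0.0156–0.500 kg per hectare. Injury is rated visually 0–9 after four to five weeks.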

GALAP (Galium) = assay: Postemergence herbicidal evaluation; assay type: in vivo, Galium aparine; conditions: postemergence
How it was run: as §1

[1] = system: TRZAWR (Wheat, Winter, cv Riband); assay: Postemergence herbicidal evaluation; assay type: in vivo, Triticum aestivum; conditions: postemergence
How it was run: as §1

[2] = system: CHEAL (Lambsquarters, Common); assay: Preemergence herbicidal evaluation; assay type: in vivo, Chenopodium album; conditions: rated 4-5 weeks after treatment; for CHEAL rating: preemergence, 0-9 scale
How it was run: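 Visual 0-9 rating vs control (stand, vigor, malformation, size, chlorosis, overall appearance), scored 4-5 wk after spraying. Seeded soil cups were treated preemergence with compound in aqueous acetone, ~0.0156-0.500 kg/ha equivalent.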

MOOVA (Monochoria) = assay: Postemergence weed control under flooded paddy conditions; assay type: in vivo, Monochoria vaginalis; conditions: postemergence weeds, rated 3 to 4 weeks after treatment
How it was run: (§2)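 Flood-water application, about 0.0313–0.500 kg/ha a.i. in aqueous/acetone 50/50 v/v; water depth 1.5–3 cm throughout. Weeds 3–5 cm, rice 1.5–2.5 leaf. Greenhouse; 0–9 visual rating vs control at 3–4 wk.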

[3] = system: SAGPY (Arrowhead (Pygmaea)); assay: as above; assay type: in vivo, Sagittaria pygmaea; conditions: postemergence weeds, rated 3 to 4 weeks after treatment
How it was run: as §2

ORYSAT (Rice, Tebonnet) = assay: Rice tolerance to post-transplant applications, flooded paddy conditions (Table III); assay type: in vivo, Oryza sativa, (L.) Tebonnet; conditions: in vivo
Procedure: Results of herbicide evaluation are expressed on a rating scale (0-9). The scale is based upon a visual observation of plant stand, vigor, malformation, size, chlorosis and overall plant appearance as compared with a control.
The tolerance of transplanted rice to post-transplanted herbicide applications is determined as follows: two ten-day-old rice seedlings (cv. Tebonnet) are transplanted into silt loam soil in 32 oz. plastic containers with a diameter of 10.5 cm and no drainage holes. After transplanting, the containers are flooded and the water level is maintained at 1.5 to 3 cm above the soil surface. Three days after transplanting, the flooded soil surface of the containers is treated with the selected aqueous/acetone 50/50 v/v mixture containing the test compounds to provide the equivalent of about 0.0313 to 0.500 kg/ha of active ingredient. The treated containers are placed on greenhouse benches, watered such that the water level is maintained as stated above, and cared for in accordance with conventional greenhouse procedures. Three to four weeks after treatment, the test is terminated and each container is examined and herbicidal effect rated according to the rating system provided in Example 37. The compounds evaluated are reported by compound number given in Example 37.
Plant species employed in this example are reported by header abbreviation, common name and scientific name.

[4] = rate 0.0156 kg/ha, rating scale 0-9
[5] = rate 0.0313 kg/ha, rating scale 0-9
[6] = rate 0.0625 kg/ha, rating scale 0-9
[7] = rate 0.1250 kg/ha, rating scale 0-9
[8] = rate 0.2500 kg/ha, rating scale 0-9

Row | Structure (SMILES) | Herbicidal rating AMBEL (AMBEL (Ragweed, Common); rate 0.0156 kg/ha) | Herbicidal rating AMBEL (AMBEL (Ragweed, Common); rate 0.0313 kg/ha) | Herbicidal rating AMBEL (AMBEL (Ragweed, Common); rate 0.0625 kg/ha) | Herbicidal rating GALAP (GALAP (Galium); rate 0.0156 kg/ha) | Herbicidal rating GALAP (GALAP (Galium); rate 0.0313 kg/ha) | Herbicidal rating GALAP (GALAP (Galium); rate 0.0625 kg/ha) | Herbicidal rating TRZAWR ([1]; rate 0.0156 kg/ha) | Herbicidal rating TRZAWR ([1]; rate 0.0313 kg/ha) | Herbicidal rating TRZAWR ([1]; rate 0.0625 kg/ha) | Herbicidal rating MOOVA (MOOVA (Monochoria); Rate 0.2500 kg/ha) | Herbicidal rating SAGPY ([3]; Rate 0.2500 kg/ha) | Preemergence herbicidal rating CHEAL [2, 5] | Preemergence herbicidal rating CHEAL [2, 6] | Preemergence herbicidal rating CHEAL [2, 7] | Preemergence herbicidal rating CHEAL [2, 8] | herbicidal effect rating, ORYSAT (rice tolerance) (ORYSAT (Rice, Tebonnet)) | also measured
1 | CN1C(=O)C(CC(=O)NS(=O)(=O)c2ccccc2)SC1=Nc1cc(-n2c(=O)cc(C(F)(F)F)n(C)c2=O)c(F)cc1Cl (centres unmarked) [Compound 102, 2-{{2-Chloro-5-[3,6-dihydro-3-methyl-2,6-dioxo-4-(trifluoromethyl)-1(2H)-pyrimidinyl]-4-fluorophenyl}imino}-3-methyl-4-oxo-N-(phenylsulfonyl)-5-thiazolidineacetamide] | 7.0 | 9.0 | 7.0 | 1.0 | 1.0 | 1.0 | 3.0 | 3.0 | 4.5 | 0.0 | 0.0 |  |  |  |  |  | Herbicidal rating AMBEL (AMBEL (Ragweed, Common); rate 0.1250 kg/ha): 9.0; Herbicidal rating GALAP (GALAP (Galium); rate 0.1250 kg/ha): 4.0; Herbicidal rating TRZAWR ([1]; rate 0.1250 kg/ha): 4.5; CHEAL rating ([2]; 0.0313 kg/ha): 6.0; CHEAL rating ([2]; 0.0625 kg/ha): 5.0; CHEAL rating ([2]; 0.2500 kg/ha): 1.0; CHEAL rating ([2]; 0.5000 kg/ha): 9.0; Herbicidal rating MOOVA (MOOVA (Monochoria); Rate 0.5000 kg/ha): 4.0; Herbicidal rating SAGPY ([3]; Rate 0.5000 kg/ha): 0.0
2 | C=CCN1C(=O)C(CC(=O)NS(=O)(=O)CC)SC1=Nc1cc(-n2c(=O)cc(C(F)(F)F)n(C)c2=O)c(F)cc1Cl (centres unmarked) [Compound 104, 3-Allyl-2-{{2-chloro-5-[3,6-dihydro-3-methyl-2,6-dioxo-4-(trifluoromethyl)-1(2H)-pyrimidinyl]-4-fluorophenyl}imino}-N-(ethylsulfonyl)-4-oxo-5-thiazolidineacetamide] | 3.0 | 9.0 | 9.0 | 0.0 | 0.0 | 1.0 | 3.0 | 3.0 | 4.0 | 9.0 | 9.0 |  |  |  |  |  | Herbicidal rating AMBEL (AMBEL (Ragweed, Common); rate 0.1250 kg/ha): 9.0; Herbicidal rating GALAP (GALAP (Galium); rate 0.1250 kg/ha): 2.0; Herbicidal rating TRZAWR ([1]; rate 0.1250 kg/ha): 4.0; CHEAL rating ([2]; 0.0625 kg/ha): 0.0; CHEAL rating ([2]; 0.1250 kg/ha): 9.0; CHEAL rating ([2]; 0.2500 kg/ha): 9.0; CHEAL rating ([2]; 0.5000 kg/ha): 9.0; Herbicidal rating MOOVA (MOOVA (Monochoria); Rate 0.0313 kg/ha): 7.0; Herbicidal rating MOOVA (MOOVA (Monochoria); Rate 0.0625 kg/ha): 9.0; Herbicidal rating MOOVA (MOOVA (Monochoria); Rate 0.1250 kg/ha): 9.0; Herbicidal rating SAGPY ([3]; Rate 0.0313 kg/ha): 6.0; Herbicidal rating SAGPY ([3]; Rate 0.0625 kg/ha): 9.0; Herbicidal rating SAGPY ([3]; Rate 0.1250 kg/ha): 9.0
3 | CC(C)S(=O)(=O)NC(=O)CC1SC(=Nc2cc(-n3c(=O)cc(C(F)(F)F)n(C)c3=O)c(F)cc2Cl)N(C)C1=O (centres unmarked) [Compound 119, 2-{{2-Chloro-5-[3,6-dihydro-3-methyl-2,6-dioxo-4-(trifluoromethyl)-1(2H)-pyrimidinyl]-4-fluorophenyl}imino}-N-(isopropylsulfonyl)-3-methyl-4-oxo-5-thiazolidineacetamide] | 9.0 | 9.0 | 9.0 | 1.0 | 1.0 | 3.0 | 2.5 | 3.5 | 3.5 | 9.0 | 0.0 |  |  |  |  |  | Preemergence herbicidal rating CHEAL ([2]; rate 0.0156 kg/ha): 9.0; Preemergence herbicidal rating CHEAL ([2]; rate 0.0313 kg/ha): 9.0; Preemergence herbicidal rating CHEAL ([2]; rate 0.0625 kg/ha): 9.0; Preemergence herbicidal rating CHEAL ([2]; rate 0.1250 kg/ha): 9.0; Preemergence herbicidal rating CHEAL ([2]; rate 0.2500 kg/ha): 9.0; Herbicidal rating MOOVA (MOOVA (Monochoria); Rate 0.0313 kg/ha): 4.0; Herbicidal rating MOOVA (MOOVA (Monochoria); Rate 0.0625 kg/ha): 7.0; Herbicidal rating MOOVA (MOOVA (Monochoria); Rate 0.1250 kg/ha): 8.0; Herbicidal rating SAGPY ([3]; Rate 0.0313 kg/ha): 0.0; Herbicidal rating SAGPY ([3]; Rate 0.0625 kg/ha): 0.0; Herbicidal rating SAGPY ([3]; Rate 0.1250 kg/ha): 0.0
4 | CN(C)c1ccc(CN2C(=O)CSC2=Nc2cc(-n3c(=O)cc(C(F)(F)F)n(C)c3=O)c(F)cc2Cl)cc1 [Compound 138, 3-{4-Chloro-5-{{3-[p-(dimethylamino)benzyl]-4-oxo-2-thiazolidinylidene}amino}-2-fluorophenyl}-1-methyl-6-(trifluoromethyl)-2,4(1H,3H)-pyrimidinedione] | 9.0 | 9.0 | 9.0 | 0.0 | 2.0 | 2.0 | 2.5 | 3.0 | 3.0 |  |  | 9.0 | 7.0 | 9.0 | 9.0 | 3.0 | Preemergence herbicidal rating CHEAL [2, 4]: 1.0
5 | Cn1c(C(F)(F)F)cc(=O)n(-c2cc(N=C3SCC(=O)N3Cc3ccc(C(F)(F)F)cc3)c(Cl)cc2F)c1=O [Compound 141, 3-{4-Chloro-2-fluoro-5-{{3-[p-(trifluoromethyl)benzyl]-4-oxo-2-thiazolidinylidene}-amino}phenyl}-1-methyl-6-(trifluoromethyl)-2,4 (1H, 3H)-pyrimidinedione] | 7.0 | 7.0 | 9.0 | 0.0 | 2.0 | 2.0 | 3.0 | 3.5 | 4.5 |  |  | 9.0 | 9.0 | 9.0 | 9.0 | 0.0 | Preemergence herbicidal rating CHEAL [2, 4]: 3.0
6 | Cc1ccc(CN2C(=O)CSC2=Nc2cc(-n3c(=O)cc(C(F)(F)F)n(C)c3=O)c(F)cc2Cl)cc1Cl [Compound 149, 3-{4-Chloro-5-{[3-(3-chloro-4-methylbenzyl)-4-oxo-2-thiazolidinylidene]amino}-2-fluorophenyl}-1-methyl-6-(trifluoromethyl)-2,4(1H,3H)-pyrimidinedione] | 4.0 | 9.0 | 9.0 | 0.0 | 0.0 | 2.0 | 3.0 | 3.5 | 3.5 |  |  |  |  | 3.0 | 9.0 | 0.0 | 
7 | CCOC(=O)CN1C(=O)C(COC)SC1=Nc1cc(-n2c(=O)cc(C(F)(F)F)n(C)c2=O)c(F)cc1Cl (centres unmarked) [Compound 156, Ethyl 2-{{2-chloro-5-[3,6-dihydro-3-methyl-2,6-dioxo-4-(trifluoromethyl)-1(2H)-pyrimidinyl]-4-fluorophenyl}imino}-5-(methoxymethyl)-4-oxo-3-thiazolidine-acetate] | 7.0 | 7.0 | 9.0 | 0.0 | 0.0 | 3.0 | 3.0 | 3.5 | 4.0 |  |  | 9.0 | 9.0 | 9.0 | 9.0 | 3.0 | 
